Source: ChEMBL document CHEMBL1201862, “PubChem BioAssay data set” (2004)
Calls of active or inactive are those of the source.

Experiments:
Beta-lactamase [1] = biological target: Beta-lactamase (Pseudomonas aeruginosa, UniProt Q79MP6);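 further: biochemical dose-response test of metallo-beta-lactamase enzyme inhibition, read out by epi-absorbance; purified recombinant IMP-1 metallo-beta-lactamase with nitrocefin as substrate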
Beta-lactamase [2] = biological target: Beta-lactamase (Salmonella choleraesuis (strain SC-B67), UniProt Q5J463)
HeLa = experiment: viability loss in HeLa cells – cell-based, 24 h, cherry-picked samples, cytotoxicity control, dose response (AID 504726); format: functional; conditions: Homo sapiens;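 further: potency for cytotoxicity as loss of luminescence signal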
ORF 73 = ORF 73 (Human herpesvirus 8, UniProt O40947); experiment: KSHV LANA DNA-binding disruption – biochemical, fluorescence polarization, cherry-picked samples, dose response (AID 504725); set-up: species or system Human gammaherpesvirus 8;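 further: fluorescence polarization of a labeled DNA duplex reporting LANA DNA binding; potency is for inhibitors that block LANA binding to the DNA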
Insulin-degrading enzyme [3] = biological target: T1, Insulin-degrading enzyme (Homo sapiens, UniProt P14735); experiment: recombinant IDE activation, cell-free – biochemical, fluorescence polarization, counter-screen for IDE activator project, dose response (AID 588681)
T1 sequence (P14735 whole entry): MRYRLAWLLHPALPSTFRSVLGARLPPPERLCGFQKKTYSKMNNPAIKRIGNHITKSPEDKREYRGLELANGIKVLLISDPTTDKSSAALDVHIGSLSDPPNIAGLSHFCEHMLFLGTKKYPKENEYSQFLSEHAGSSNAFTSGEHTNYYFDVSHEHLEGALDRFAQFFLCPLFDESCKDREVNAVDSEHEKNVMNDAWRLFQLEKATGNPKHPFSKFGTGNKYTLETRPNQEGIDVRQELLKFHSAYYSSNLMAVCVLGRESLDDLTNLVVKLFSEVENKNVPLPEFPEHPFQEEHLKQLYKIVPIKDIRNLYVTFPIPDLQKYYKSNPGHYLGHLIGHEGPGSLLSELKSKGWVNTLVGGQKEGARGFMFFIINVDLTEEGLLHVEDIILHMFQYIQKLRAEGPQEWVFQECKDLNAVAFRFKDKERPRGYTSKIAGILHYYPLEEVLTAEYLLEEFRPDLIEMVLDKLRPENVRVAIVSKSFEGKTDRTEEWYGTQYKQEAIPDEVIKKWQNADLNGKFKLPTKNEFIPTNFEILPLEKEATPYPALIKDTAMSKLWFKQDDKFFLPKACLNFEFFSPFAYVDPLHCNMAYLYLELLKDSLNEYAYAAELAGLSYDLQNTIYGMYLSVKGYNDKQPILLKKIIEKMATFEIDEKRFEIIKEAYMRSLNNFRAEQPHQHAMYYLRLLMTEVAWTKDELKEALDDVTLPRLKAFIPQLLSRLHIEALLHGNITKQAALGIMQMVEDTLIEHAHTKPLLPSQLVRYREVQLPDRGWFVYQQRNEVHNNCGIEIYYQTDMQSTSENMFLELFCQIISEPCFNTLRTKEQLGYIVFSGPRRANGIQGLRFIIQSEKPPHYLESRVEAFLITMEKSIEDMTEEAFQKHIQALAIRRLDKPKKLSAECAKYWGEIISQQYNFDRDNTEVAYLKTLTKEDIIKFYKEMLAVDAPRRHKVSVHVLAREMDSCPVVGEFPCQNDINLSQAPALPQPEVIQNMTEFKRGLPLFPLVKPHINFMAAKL

Insulin-degrading enzyme [4] = biological target: T1, Insulin-degrading enzyme; experiment: cellular IDE activation of Abeta substrate cleavage – fluorescence polarization, HEK cells, dose response (AID 588439); format: functional, cell-based
HEK293 [5] = experiment: membrane integrity loss in HEK cells – cell-based, fluorescence, cytotoxicity control for IDE activator project, dose response (AID 588440); format: functional; conditions: Homo sapiens;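 further: cytotoxicity by LDH release measuring loss of membrane integrity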
[6] = biological target: Dual specificity tyrosine-phosphorylation-regulated kinase 1A (Rattus norvegicus, UniProt Q63470); format: biochemical, Homo sapiens
HEK293 [7] = experiment: optical interference in Abeta FP readout, dose response, artefact control for IDE activator project, biochemical, fluorescence polarization (AID 588442); format: functional, cell-based; conditions: Homo sapiens
[8] = biological target: T2, Short transient receptor potential channel 4 (Mus musculus, UniProt Q9QUQ5); experiment: block of DAMGO-driven TRPC4 calcium entry – cell-based, HEK293 TRPC4/mu-opioid, Fluo-4 calcium, dose response (AID 434942); format: functional;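 further: potency of inhibitors blocking the TRPC4 calcium response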
T2 sequence (Q9QUQ5 whole entry): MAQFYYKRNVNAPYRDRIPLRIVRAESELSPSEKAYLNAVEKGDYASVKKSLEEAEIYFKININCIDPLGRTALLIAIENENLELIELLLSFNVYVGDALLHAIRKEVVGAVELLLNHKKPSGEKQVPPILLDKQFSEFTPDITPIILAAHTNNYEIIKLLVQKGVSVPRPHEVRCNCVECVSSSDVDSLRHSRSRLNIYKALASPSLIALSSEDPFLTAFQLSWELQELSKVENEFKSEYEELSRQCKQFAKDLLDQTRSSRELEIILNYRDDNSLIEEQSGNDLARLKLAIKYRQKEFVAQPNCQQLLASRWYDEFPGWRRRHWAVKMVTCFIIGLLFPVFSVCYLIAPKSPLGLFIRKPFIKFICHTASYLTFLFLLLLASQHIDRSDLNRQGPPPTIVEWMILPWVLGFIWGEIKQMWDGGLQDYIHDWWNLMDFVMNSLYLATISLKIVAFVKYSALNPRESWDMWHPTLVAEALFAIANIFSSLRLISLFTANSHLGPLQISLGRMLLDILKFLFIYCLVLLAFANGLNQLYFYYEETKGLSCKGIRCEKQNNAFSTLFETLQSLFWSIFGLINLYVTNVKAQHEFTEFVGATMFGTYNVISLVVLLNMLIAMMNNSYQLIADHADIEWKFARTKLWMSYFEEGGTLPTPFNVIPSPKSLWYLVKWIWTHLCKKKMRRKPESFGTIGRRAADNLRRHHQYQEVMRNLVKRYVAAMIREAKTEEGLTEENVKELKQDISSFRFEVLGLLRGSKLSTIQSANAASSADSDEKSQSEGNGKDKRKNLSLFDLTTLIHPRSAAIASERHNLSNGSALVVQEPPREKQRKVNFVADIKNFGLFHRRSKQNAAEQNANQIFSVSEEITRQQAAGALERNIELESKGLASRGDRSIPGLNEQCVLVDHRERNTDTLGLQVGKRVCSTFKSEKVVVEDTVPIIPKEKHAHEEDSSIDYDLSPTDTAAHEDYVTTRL

[9] = decrease of insulin promoter-GFP reporter – imaging, high-content screening, mouse beta cells (AID 1628); format: functional; conditions: MIN6
[10] = MIN6 cell viability loss – mouse insulinoma, cytotoxicity control, dose response (AID 2122); format: functional;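 further: confirmatory high-throughput counterscreen run to flag cytotoxic compounds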
[11] = biological target: G-protein coupled receptor 35 (Homo sapiens, UniProt Q9HC97); experiment: inhibition of zaprinast-stimulated GPR35 beta-arrestin translocation – imaging, U2OS, beta-arrestin-GFP, zaprinast agonist, primary screen (AID 2058); format: functional;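 further: antagonist potency meaning inhibition of agonist-induced arrestin redistribution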
[12] = biological target: T3, Corticotropin-releasing factor receptor 2/Corticotropin-releasing factor-binding protein (Homo sapiens, UniProt P24387+Q13324); experiment: activators of CRF receptor 2 with binding protein – uHTS hits, confirmation (AID 602473); format: functional; conditions: read-out: EC50_Mean
T3 sequence (Q13324 whole entry): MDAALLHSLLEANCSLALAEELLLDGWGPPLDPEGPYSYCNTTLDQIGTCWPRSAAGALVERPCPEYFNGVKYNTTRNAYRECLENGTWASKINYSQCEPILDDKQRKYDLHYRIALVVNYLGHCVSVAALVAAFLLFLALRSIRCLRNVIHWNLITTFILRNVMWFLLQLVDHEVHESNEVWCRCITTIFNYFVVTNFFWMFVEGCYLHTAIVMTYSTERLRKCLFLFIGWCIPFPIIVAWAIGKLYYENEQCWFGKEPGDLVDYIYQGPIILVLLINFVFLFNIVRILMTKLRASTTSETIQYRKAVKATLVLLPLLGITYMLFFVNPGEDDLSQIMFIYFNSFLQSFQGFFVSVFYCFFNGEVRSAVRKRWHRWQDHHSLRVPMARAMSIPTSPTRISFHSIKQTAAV
T3 sequence (P24387 whole entry): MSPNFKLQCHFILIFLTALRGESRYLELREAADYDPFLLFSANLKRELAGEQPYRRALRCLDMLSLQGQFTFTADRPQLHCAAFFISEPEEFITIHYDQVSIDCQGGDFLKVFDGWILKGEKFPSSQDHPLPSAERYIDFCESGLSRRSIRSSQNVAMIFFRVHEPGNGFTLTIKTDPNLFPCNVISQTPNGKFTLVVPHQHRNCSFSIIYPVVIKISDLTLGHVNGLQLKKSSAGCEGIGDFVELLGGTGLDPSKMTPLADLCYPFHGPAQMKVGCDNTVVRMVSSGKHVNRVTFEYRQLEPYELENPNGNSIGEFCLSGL

[13] = biological target: T2, Short transient receptor potential channel 4; experiment: calcium entry via TRPC4 opening agents – cell-based, HEK293 TRPC4/mu-opioid, Fluo-4 calcium, dose response (AID 434937); format: functional
Cytochrome P450 2C19 = Cytochrome P450 2C19 (Homo sapiens, UniProt P33261); experiment: Cytochrome panel assay with activity outcomes. Panel member name: p450-cyp2c19 Compounds with AC50 equal or less than 10 uM are considered active; format: functional; conditions: read-out: AC50
Cytochrome P450 2D6 = Cytochrome P450 2D6 (Homo sapiens, UniProt P10635);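 further: CYP2D6 member of a cytochrome P450 panel assay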
Exodeoxyribonuclease V = Exodeoxyribonuclease V (Escherichia coli (strain K12), UniProt P04993+P07648+P08394); experiment: RecBCD inhibition via phage-restricted bacterial growth – absorbance, V66 E. coli, mutant T4 phage, counter-screen for AddAB inhibitor project, dose response (AID 492957); format: functional, cell-based, Escherichia coli str. K-12 substr. MG1655
Nonstructural protein 1 = Nonstructural protein 1 (Influenza A virus, UniProt Q194T2); format: functional, Influenza A virus (A/California/07/2009(H1N1))
[14] = Counterscreen for AddAB inhibitors: absorbance-based bacterial cell-based high throughput dose response assay for inhibitors of bacterial viability. [Related pubchem assays (depositor defined):AID435030, AID449728, AID449731, AID488942, AID488955, AID488956]; format: functional
[15] = HGIII-sPLA2 enzyme inhibition potency – biochemical, QFRET, IC50, dose response (AID 743457);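 further: green fluorescence rise as the enzyme cleaves BODIPY PC-A2 in liposomes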
Hexokinase = Hexokinase (Trypanosoma brucei, UniProt Q38C41); experiment: Confirmation assay for inhibitors of Trypanosoma brucei hexokinase 1-Analogue-first series. [Related pubchem assays (depositor defined):AID1430, AID1632, AID2516, AID2560, AID2579, AID2600, AID449725, AID492951]; format: functional
[16] = biological target: T4, Mannose-6-phosphate isomerase (Homo sapiens, UniProt P34949); experiment: phosphomannose isomerase inhibition – biochemical, fluorescence intensity, confirmation (AID 1535)
T4 sequence (P34949 whole entry): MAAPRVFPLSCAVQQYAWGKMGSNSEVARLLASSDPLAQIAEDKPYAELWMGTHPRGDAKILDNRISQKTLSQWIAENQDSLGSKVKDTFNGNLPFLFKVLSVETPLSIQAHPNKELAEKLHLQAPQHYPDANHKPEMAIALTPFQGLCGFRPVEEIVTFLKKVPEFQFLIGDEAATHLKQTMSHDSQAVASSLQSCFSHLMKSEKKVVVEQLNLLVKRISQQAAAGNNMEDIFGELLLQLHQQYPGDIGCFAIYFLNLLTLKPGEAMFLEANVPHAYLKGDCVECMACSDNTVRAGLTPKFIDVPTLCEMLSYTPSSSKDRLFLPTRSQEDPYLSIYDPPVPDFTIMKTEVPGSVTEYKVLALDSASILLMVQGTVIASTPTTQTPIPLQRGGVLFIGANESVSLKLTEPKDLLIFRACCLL

Phosphomannomutase 2 = Phosphomannomutase 2 (Homo sapiens, UniProt O15305); experiment: Counter screen SAR assay for PMM2 inhibitors via a fluorescence intensity assay. [Related pubchem assays (depositor defined):AID1545, AID1574]
[17] = biological target: Phosphoethanolamine/phosphocholine phosphatase (Homo sapiens, UniProt Q8TCT1); experiment: SAR assay for compounds that inhibit PHOSPHO1. [Related pubchem assays (depositor defined):AID1545, AID1565, AID1574]
Chain of Phosphoethanolamine/phosphocholine phosphatase (Q8TCT1 whole entry): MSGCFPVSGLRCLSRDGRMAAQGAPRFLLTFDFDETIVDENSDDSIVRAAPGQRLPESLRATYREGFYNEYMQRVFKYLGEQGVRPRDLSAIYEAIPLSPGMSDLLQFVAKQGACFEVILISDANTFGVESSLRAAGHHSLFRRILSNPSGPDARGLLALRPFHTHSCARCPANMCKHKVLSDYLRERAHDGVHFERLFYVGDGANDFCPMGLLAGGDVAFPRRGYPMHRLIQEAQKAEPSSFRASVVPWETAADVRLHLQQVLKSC

Chain of Hexokinase (Q38C41 whole entry): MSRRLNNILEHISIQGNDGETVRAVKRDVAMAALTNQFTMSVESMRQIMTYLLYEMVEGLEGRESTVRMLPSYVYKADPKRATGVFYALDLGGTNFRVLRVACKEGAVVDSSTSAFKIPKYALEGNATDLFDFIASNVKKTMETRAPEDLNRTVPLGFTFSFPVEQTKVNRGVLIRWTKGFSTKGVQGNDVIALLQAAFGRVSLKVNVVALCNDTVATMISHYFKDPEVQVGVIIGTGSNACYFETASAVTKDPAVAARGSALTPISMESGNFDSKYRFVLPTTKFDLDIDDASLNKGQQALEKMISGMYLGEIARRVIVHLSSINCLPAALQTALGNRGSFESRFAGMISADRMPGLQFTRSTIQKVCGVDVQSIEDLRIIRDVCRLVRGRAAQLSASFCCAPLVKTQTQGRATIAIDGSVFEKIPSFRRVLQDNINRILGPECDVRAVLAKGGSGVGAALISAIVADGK
Chain of Phosphomannomutase 2 (O15305 whole entry): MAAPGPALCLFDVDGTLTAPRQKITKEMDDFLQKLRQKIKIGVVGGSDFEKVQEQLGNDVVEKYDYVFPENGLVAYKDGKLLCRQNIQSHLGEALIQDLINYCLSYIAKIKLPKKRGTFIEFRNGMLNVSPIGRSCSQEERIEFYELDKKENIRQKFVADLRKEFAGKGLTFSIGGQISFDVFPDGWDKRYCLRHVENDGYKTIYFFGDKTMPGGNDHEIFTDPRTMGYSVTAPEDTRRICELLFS
Chain of Exodeoxyribonuclease V (P04993 whole entry): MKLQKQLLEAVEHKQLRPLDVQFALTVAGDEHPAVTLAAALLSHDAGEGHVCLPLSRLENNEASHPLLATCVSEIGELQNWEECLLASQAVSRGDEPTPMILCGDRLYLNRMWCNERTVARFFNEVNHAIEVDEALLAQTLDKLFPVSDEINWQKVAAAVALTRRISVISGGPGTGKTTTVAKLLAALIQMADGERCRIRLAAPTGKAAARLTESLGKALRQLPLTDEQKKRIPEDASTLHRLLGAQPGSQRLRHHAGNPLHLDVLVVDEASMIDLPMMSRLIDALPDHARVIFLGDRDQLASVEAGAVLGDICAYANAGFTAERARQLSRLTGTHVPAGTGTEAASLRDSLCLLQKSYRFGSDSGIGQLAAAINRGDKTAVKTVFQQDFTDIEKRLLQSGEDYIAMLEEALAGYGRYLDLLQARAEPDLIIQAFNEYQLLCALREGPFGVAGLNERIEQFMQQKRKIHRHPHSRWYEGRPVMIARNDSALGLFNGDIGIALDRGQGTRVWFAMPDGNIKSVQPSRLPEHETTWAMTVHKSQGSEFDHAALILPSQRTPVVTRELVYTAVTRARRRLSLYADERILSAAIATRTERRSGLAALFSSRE
Chain of Exodeoxyribonuclease V (P07648 whole entry): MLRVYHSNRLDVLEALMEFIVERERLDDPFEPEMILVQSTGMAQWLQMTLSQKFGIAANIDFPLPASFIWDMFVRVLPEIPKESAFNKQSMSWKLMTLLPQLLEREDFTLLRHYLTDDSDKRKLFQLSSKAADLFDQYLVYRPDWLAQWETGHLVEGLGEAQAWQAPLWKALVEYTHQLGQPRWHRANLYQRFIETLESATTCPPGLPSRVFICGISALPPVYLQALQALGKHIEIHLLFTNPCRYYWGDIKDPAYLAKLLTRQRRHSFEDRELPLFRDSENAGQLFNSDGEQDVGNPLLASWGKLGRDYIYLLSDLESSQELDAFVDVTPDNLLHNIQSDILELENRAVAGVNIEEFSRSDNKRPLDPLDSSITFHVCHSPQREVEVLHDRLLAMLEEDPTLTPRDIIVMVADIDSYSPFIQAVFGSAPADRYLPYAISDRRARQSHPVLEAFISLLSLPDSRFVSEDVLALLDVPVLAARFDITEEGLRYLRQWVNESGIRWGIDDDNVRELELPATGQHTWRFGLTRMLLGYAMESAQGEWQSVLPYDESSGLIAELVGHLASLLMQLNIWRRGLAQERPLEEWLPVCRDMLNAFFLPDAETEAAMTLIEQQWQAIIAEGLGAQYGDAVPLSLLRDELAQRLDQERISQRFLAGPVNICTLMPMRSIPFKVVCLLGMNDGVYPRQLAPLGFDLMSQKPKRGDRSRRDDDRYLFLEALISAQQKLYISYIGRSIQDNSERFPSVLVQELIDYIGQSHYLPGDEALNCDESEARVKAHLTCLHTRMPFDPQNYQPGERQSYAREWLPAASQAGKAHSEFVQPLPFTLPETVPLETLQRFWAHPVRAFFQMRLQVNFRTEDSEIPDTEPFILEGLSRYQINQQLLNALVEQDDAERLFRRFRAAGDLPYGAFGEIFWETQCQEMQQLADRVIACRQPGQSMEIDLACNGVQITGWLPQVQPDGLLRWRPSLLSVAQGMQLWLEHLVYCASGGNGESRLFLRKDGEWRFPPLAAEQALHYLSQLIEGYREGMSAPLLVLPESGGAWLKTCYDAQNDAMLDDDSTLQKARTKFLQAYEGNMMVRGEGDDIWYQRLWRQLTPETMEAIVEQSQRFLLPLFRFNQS
Chain of Exodeoxyribonuclease V (P08394 whole entry): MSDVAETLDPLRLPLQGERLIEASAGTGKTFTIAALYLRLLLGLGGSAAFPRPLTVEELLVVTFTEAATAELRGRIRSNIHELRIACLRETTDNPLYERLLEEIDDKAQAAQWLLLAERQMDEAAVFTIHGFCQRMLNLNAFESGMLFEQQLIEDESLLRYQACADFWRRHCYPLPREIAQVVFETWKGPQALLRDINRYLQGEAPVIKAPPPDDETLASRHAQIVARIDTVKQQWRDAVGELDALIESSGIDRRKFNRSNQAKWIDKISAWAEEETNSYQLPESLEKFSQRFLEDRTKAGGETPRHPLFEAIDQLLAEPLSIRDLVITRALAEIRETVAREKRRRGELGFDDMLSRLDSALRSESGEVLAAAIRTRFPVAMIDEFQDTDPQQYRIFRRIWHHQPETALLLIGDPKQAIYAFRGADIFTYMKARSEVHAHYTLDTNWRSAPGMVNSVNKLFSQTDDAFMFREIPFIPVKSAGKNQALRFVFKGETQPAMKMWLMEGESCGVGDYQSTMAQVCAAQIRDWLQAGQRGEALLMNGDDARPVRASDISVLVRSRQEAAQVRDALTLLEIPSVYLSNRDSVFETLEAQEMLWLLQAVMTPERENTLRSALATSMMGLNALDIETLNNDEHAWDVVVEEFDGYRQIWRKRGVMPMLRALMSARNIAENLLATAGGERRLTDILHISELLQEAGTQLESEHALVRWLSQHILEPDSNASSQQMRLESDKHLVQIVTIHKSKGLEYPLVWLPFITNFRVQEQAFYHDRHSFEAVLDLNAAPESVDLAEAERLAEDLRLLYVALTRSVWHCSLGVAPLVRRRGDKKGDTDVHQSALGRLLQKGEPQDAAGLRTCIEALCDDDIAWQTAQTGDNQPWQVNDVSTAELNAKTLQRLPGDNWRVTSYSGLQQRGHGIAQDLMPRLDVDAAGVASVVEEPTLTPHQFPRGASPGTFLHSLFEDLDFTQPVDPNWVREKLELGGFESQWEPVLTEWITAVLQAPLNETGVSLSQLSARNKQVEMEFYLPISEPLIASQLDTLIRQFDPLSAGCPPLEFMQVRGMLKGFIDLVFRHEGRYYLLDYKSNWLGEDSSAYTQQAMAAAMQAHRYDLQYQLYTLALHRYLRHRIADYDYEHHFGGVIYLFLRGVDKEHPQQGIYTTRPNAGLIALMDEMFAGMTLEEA
Chain of ORF 73 (O40947 whole entry): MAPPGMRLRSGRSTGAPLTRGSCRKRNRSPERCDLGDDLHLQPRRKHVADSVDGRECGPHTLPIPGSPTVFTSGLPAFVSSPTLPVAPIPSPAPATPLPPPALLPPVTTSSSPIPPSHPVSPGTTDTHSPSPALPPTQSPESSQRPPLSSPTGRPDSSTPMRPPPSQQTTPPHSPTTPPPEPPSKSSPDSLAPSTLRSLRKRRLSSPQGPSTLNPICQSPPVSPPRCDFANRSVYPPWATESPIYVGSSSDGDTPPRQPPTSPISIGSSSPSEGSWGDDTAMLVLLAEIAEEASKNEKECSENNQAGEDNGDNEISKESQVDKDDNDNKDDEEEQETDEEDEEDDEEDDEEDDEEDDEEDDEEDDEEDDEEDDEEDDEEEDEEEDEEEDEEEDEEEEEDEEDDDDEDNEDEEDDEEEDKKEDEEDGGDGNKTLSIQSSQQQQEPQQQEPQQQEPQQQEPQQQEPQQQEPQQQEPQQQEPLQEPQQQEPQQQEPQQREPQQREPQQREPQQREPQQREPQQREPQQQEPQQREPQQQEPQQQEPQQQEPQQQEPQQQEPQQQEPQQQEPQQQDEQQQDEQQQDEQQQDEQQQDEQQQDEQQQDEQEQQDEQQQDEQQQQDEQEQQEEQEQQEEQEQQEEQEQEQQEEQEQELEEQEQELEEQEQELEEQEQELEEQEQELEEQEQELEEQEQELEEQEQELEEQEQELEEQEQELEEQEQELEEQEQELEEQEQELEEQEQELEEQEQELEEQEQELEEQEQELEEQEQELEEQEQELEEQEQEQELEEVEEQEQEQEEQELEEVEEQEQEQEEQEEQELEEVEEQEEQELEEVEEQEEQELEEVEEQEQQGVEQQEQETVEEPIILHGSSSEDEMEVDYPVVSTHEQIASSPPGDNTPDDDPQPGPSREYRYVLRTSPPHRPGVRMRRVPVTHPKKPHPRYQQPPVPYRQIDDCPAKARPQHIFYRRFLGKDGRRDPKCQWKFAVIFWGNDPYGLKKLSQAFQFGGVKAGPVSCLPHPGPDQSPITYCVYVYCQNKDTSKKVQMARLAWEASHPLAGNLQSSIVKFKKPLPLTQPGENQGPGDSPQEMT

COCCCNc1c(O)nc2cccc3c2c1-c1ccccc1C3=O
IC50 (Beta-lactamase [1]): 2.11 µM (active)
IC50 (Beta-lactamase [2]): 0.89 µM (active)
AC50 (HeLa): 66.1 µM (active)
AC50 (ORF 73): 0.526 µM (active)
EC50 (Insulin-degrading enzyme [3]): > 54.7 µM (inactive)
EC50 (Insulin-degrading enzyme [4]): > 54.7 µM (inactive)
IC50 (HEK293 [5]): > 89.2 µM (inactive)
AC50 [6]: 1.57 µM (active)
EC50 (HEK293 [7]): > 54.7 µM (inactive)

CCc1cc(C(c2cccc(OC)c2)N2CCOCC2)c(NC(=O)c2ccccc2)s1 (stereo not drawn)
EC50 [8]: 1.88 µM (active)

COc1cc(-c2nnc3sc(-c4cccs4)nn23)cc(OC)c1OC
IC50 [9]: 1.64 µM (active)
IC50 [10]: 13.9 µM (inactive)

CCCCN1C(=O)NC(=O)/C(=C(O)\C=C\c2c[nH]c3ccccc23)C1=O
IC50 [11]: 3.1 µM (active)
EC50 [12]: 6.02 µM (active)

Cc1onc(-c2ccccc2)c1C(=O)NNC(=S)NC(=O)/C=C/c1ccccc1
EC50 [8]: 5.31 µM (active)
EC50 [13]: 4.22 µM (active)
EC50 [12]: 3.32 µM (active)

Cc1ccc(OCC(=O)NNC(=O)CCC(=O)NCc2ccccc2)cc1
AC50 (Cytochrome P450 2C19): 0.00562 µM (inconclusive)
AC50 (Cytochrome P450 2D6): inconclusive

CCCOc1ccccc1N=C(N)Nc1nc(C)cc(C)n1
IC50 [9]: 1.29 µM (active)
IC50 [10]: 2.56 µM (active)

O=C(NC(=S)NNC(=O)c1ccccc1O)c1cccs1
IC50 (Exodeoxyribonuclease V): 79.9 µM (inactive)
IC50 (Nonstructural protein 1): 10.6 µM (active)
IC50 [14]: 66.1 µM (inactive)
IC50 [15]: > 122 µM (inactive)

COc1ccc(C(=O)Nc2cc(Cl)ccc2[N+](=O)[O-])cc1
IC50 (Hexokinase): > 25 µM (inactive)

N#Cc1ccc(NC(=O)Cn2sc3ccccc3c2=O)cc1
IC50 (Hexokinase): 6.97 µM (active)

CN(C)c1ccc(-n2sc3ccccc3c2=O)cc1
IC50 [16]: 21.4 µM (active)
IC50 (Phosphomannomutase 2): > 100 µM (inactive)
IC50 [17]: 11.4 µM (inactive)

O=c1c2ccccc2sn1-c1cccc(S(=O)(=O)Nc2ccc(Cl)cc2)c1
IC50 [16]: 1.59 µM (active)
IC50 (Phosphomannomutase 2): 9.44 µM (active)
IC50 [17]: 8.2 µM (inactive)
